Values of other authors as cited in article PMC13335693, “Discovery of a Potent Fluorescence Polarization Probe for Identifying USP1 Allosteric Inhibitors” (Advanced Science, 2026).

Details: stated for compound 4 as known drawback; no reference given

Cc1cnc(-c2ccccc2C(C)C)nc1NCc1ccc(-n2ccnn2)cc1 [ML323]
half-life in mouse liver microsomes (MLM): 15 min
